According to patent publication US20240239757A1, “PHTHALAZINONE DERIVATES AS NLRP3 INFLAMMASOME INHIBITORS” (JANSSEN PHARMACEUTICA NV, priority 2021, published 2024):

Experiments:
[1] = tested on: TNF; experiment: PBMC assay, TNF; type: cell-based; settings: human PBMCs, 30 min with compound, then 100 ng/ml LPS for 6 hrs, supernatant analysed via MSD technology
Experimental: (§1) Peripheral venous blood was collected from healthy individuals and human peripheral blood mononuclear cells (PBMCs) were isolated from blood by Ficoll-Histopaque (Sigma-Aldrich, A0561) density gradient centrifugation. After isolation, PBMCs were stored in liquid nitrogen for later use. Upon thawing, PBMC cell viability was determined in growth medium (RPMI media supplemented with 10% fetal bovine serum, 1% Pen-Strep and 1% L-glutamine). Compounds were spotted in a 1:3 serial dilution in DMSO and diluted to the final concentration in 30 μl medium in 96 well plates (Falcon, 353072). PBMCs were added at a density of 7.5×10^4 cells per well and incubated for 30 min in a 5% CO2 incubator at 37° C. LPS stimulation was performed by addition of 100 ng/ml LPS (final concentration, Invivogen, tlrl-smlps) for 6 hrs followed by collection of cellular supernatant and the analysis of IL-1β (μM) and TNF cytokines levels (μM) via MSD technology according to manufacturers' guidelines (MSD, K151A0H).
(§2) The IC50 values (for IL-1β) and EC50 values (TNF) were obtained on compounds of formula (I)/examples, and are depicted in the following table: […]

[2] = tested on: IL-1β; experiment: PBMC assay, IL-1β; type: cell-based; settings: human PBMCs, 30 min with compound, then 100 ng/ml LPS for 6 hrs, supernatant analysed via MSD technology, read-out: IL1β IC50
Experimental: The activity of a compound according to the present invention can be assessed by in vitro methods.
as §1, §2

Compound	EC50 [1] [µM]	melting point [°C]	IC50 [2] [µM]
O=C(Cn1nc(N2CC(F)(F)C2)c2cc(C(F)(F)F)ccc2c1=O)Nc1ccncn1 [Compound 3D]	> 10	288.6	3.32
CN(C)c1nn(CC(=O)Nc2ccc3nncn3c2)c(=O)c2ccc(Cl)cc12 [Compound 8I]	> 10	295.3	0.31
O=C(Cn1nc(N2CC(F)(F)C2)c2cc(C(F)(F)F)ccc2c1=O)Nc1ccnnc1 [Compound 3E]	> 10	221.6	9.61
CN(C)c1nn(CC(=O)N[C@H]2C[C@@](C)(O)C2)c(=O)c2cc(Cl)ccc12 [Compound 9H]	> 10	173.1	> 10
O=C(Cn1nc(N2CC(F)(F)C2)c2cc(C(F)(F)F)ccc2c1=O)Nc1ccc2nncn2c1 [Compound 3C]	> 10	–	> 10
CN(C)c1nn(CC(=O)N[C@H]2C[C@@](C)(O)C2)c(=O)c2ccc(Cl)cc12 [Compound 8H]	> 10	184.8	0.12
CN(C)c1nn(CC(=O)N[C@H]2C[C@@](C)(O)C2)c(=O)c2ccc(Br)cc12 [Compound 5C]	> 10	193.2	0.03
CN(C)c1nn(CC(=O)N[C@H]2C[C@@](C)(O)C2)c(=O)c2ccc(C(F)(F)F)cc12 [Compound 1J]	> 10	184.8	0.07
CN(C)c1nn(CC(=O)Nc2ccc3nncn3c2)c(=O)c2ccc(C(F)(F)F)cc12 [Compound 1H, N-([1,2,4]triazolo[4,3-a]pyridin-6-yl)-2-(4-(dimethylamino)-1-oxo-6-(trifluoromethyl)phthalazin-2(1H)-yl)acetamide]	> 10	–	0.08
CN(C)c1nn(CC(=O)Nc2ccc3nncn3c2)c(=O)c2cc(Cl)ccc12 [Compound 9J]	> 10	> 300	> 10
CN(C)CCN(C)c1nn(CC(=O)Nc2ccc3nncn3c2)c(=O)c2ccc(C(F)(F)F)cc12 [Compound 6C]	> 10	–	> 10
O=C(Cn1nc(N2CC(F)(F)C2)c2cc(Br)ccc2c1=O)Nc1ccncn1 [Compound 4G]	> 10	286.8	4.29
C[C@]1(O)C[C@@H](NC(=O)Cn2nc(N3CC(F)(F)C3)c3cc(C(F)(F)F)ccc3c2=O)C1 [Compound 3F]	> 10	213.3	3.09
CN(C)c1nn(CC(=O)Nc2ccncn2)c(=O)c2ccc(C(F)(F)F)cc12 [Compound 1I]	> 10	238.3	0.17
CN(C)c1nn(CC(=O)Nc2ccc(=O)n(C)n2)c(=O)c2ccc(Br)cc12 [Compound 5E]	> 10	246.8	0.17
CN(C)c1nn(CC(=O)Nc2ccc3nncn3c2)c(=O)c2ccc(Br)cc12 [Compound 5D]	> 10	> 300	0.05
CN(C)c1nn(CC(=O)Nc2ccc(=O)n(C)n2)c(=O)c2ccc(C(F)(F)F)cc12 [Compound 1K]	> 10	241.8	0.36
CC(C)n1ccc(NC(=O)Cn2nc(N3CC(F)(F)C3)c3cc(C(F)(F)F)ccc3c2=O)n1 [Compound 3G]	> 10	220	> 10
COCCN(C)c1nn(CC(=O)Nc2ccc3nncn3c2)c(=O)c2ccc(C(F)(F)F)cc12 [Compound 7C]	> 10	–	5.63
CN(C)c1nn(CC(=O)Nc2ccc3nncn3n2)c(=O)c2ccc(Cl)cc12 [Compound 10A]	> 10	270.3	0.13
CN(C)c1nn(CC(=O)Nc2ccc(=O)n(C)n2)c(=O)c2ccc(Cl)cc12 [Compound 8J]	> 10	253.4	0.84
CN(C)c1nn(CC(=O)Nc2ccc3nncn3n2)c(=O)c2ccc(C(F)(F)F)cc12 [Compound 2A, N-([1,2,4]triazolo[4,3-b]pyridazin-6-yl)-2-(4-(dimethylamino)-1-oxo-6-(trifluoromethyl)phthalazin-2(1H)-yl)acetamide]	> 10	–	0.07
CN(C)c1nn(CC(=O)Nc2ccc3nncn3n2)c(=O)c2ccc(Br)cc12 [Compound 11A]	> 10	231.6	0.05
CN(C)c1nn(CC(=O)Nc2ccc(=O)n(C)n2)c(=O)c2cc(Cl)ccc12 [Compound 9I]	> 10	213.2	> 10
